Literature values as cited in paper PMC11258229 (Scientific Reports, 2024).

Legend:
[1] = high permeability and low solubility

CC[C@@H]([C@H](C)O)n1ncn(-c2ccc(N3CCN(c4ccc(OC[C@@H]5CO[C@@](Cn6cncn6)(c6ccc(F)cc6F)C5)cc4)CC3)cc2)c1=O [Posaconazole]
half-life (T1/2): twenty to sixty six | mean T1/2: thirty five | renal clearance, share of the total conjugate oral dosage: around 13% | biopharmaceutical classification system category [1]: class II
